# Calls of active or inactive are those of the source.
# Target: Cytochrome P450 2C19 (Homo sapiens, UniProt P33261)
# Experiment: Cytochrome panel assay with activity outcomes. Panel member name: p450-cyp2c19 Compounds with AC50 equal or less than 10 uM are considered active
# Type: functional
# Settings: not given
# Cytochrome P450 2C19, sequence (P33261 whole entry): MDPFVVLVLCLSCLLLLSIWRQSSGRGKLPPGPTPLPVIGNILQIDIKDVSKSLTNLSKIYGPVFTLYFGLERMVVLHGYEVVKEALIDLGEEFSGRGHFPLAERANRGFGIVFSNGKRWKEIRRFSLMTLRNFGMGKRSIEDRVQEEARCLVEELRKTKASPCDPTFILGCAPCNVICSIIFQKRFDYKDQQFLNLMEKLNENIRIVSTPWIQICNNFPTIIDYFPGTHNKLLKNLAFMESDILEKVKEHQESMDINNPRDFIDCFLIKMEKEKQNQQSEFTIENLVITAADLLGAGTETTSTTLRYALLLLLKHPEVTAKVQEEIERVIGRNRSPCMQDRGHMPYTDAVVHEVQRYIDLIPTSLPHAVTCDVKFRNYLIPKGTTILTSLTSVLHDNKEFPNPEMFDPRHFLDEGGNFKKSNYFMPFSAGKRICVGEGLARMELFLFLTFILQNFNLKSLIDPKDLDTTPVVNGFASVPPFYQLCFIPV
row,SMILES,AC50
1,CCN1CCN(c2nc(C)c3c(n2)CCCC3=O)CC1,inconclusive

# Same assay, conditions: read-out: AC50
row,SMILES,AC50
1,CCN(CC)C(=O)CSc1nnc(-c2cc3ccccc3cc2O)n1CC,15.8 µM (inconclusive)
2,CC(NC(=O)CSc1nc(=O)cc(N)n1CCc1ccccc1)c1ccccc1 (stereo not given),14.1 µM (inconclusive)
3,COc1cccc(-c2nnc3sc(-c4ccc(C)cc4)nn23)c1,6.31 µM (inconclusive)

# Tested on: Streptococcus
# Experiment: GAS UMAA2166 growth inhibition – luminescence, BacTiterGlo, counter-screen for streptokinase expression inhibitor project, dose response (AID 1915);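 note: potency for reduction of bacterial viability or growth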
# Type: functional, organism-based
# Settings: not given
row,SMILES,EC50
1,CCCSc1nsc(NC(=O)Nc2ccc(F)cc2F)n1,34.2 µM (active)
2,COC(=O)c1ccc2[nH]c3cccc(/C(=C/c4ccccc4)c4ccccc4)c3c2c1,3.93 µM (active)

# Target: T1, Zinc finger protein mex-5 (Caenorhabditis elegans, UniProt Q9XUB2)
# T1 sequence (Q9XUB2 whole entry): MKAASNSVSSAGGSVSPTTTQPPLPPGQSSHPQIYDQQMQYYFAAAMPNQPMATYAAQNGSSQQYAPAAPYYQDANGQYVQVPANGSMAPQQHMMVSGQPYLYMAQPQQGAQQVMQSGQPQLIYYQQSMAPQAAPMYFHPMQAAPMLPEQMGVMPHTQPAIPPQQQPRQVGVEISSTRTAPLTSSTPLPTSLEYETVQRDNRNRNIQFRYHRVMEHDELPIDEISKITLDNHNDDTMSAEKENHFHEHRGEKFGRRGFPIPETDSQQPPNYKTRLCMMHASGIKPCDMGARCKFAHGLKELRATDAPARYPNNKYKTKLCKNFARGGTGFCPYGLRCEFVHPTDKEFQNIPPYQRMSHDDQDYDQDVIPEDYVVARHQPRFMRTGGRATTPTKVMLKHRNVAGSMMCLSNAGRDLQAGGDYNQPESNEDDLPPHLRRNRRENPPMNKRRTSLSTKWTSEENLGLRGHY
# Experiment: potency of MEX-5 RNA-binding blockers – biochemical, C. elegans, fluorescence polarization, dose response (AID 1960)
# Settings: not given
row,SMILES,EC50
1,Cc1cc(/C=C2\SC(=O)N(C)C2=O)c(C)n1-c1cccc(C(=O)O)c1,> 300 µM (not active)
2,CN1C(=O)/C(=C/c2ccc3c(c2)OCO3)N=C1c1ccccc1,75.1 µM (inconclusive)
3,Cc1ccc(NC(=O)CSc2nccc(=O)[nH]2)c(S(=O)(=O)N2CCOCC2)c1,> 300 µM (not active)
4,Cc1cc([N+](=O)[O-])nn1CC(=O)NNC(=S)Nc1ccc([N+](=O)[O-])cc1,5.47 µM (active)
5,O=C1C2CC=C(Cl)CC2C(=O)N1CCc1ccccc1 (stereo not given),20.6 µM (active)
6,O=C(CC1Nc2ccccc2NC1=O)c1ccccc1 (stereo not given),103 µM (active)
7,COc1cc(/N=C/c2c(O)oc3ccccc3c2=O)c(OC)cc1Cl,> 300 µM (inconclusive)
8,COc1ccccc1NCC(=O)N/N=C/c1c(O)ccc2ccccc12,> 150 µM (not active)

# Tested on: not listed separately
# Experiment: Luminescence Cell-Based Dose Retest to Confirm Inhibitors of Cancer Stem Cells. [Related pubchem assays (depositor defined):AID2717, AID2721]
# Type: functional
# Settings: Homo sapiens
row,SMILES,AC50
1,CCCSc1nsc(NC(=O)Nc2ccc(F)cc2F)n1,2.95 µM (active)

# Tested on: INS1
# Experiment: INS-1E survival protection against cytokine death – cell-based, luminescence, retest, dose response (AID 449756);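 note: cell death triggered by IL-1 beta plus TNF-alpha plus IFN-gamma mixture; protective hits raise ATP signal compared with cytokine alone wells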
# Type: functional
# Settings: Rattus norvegicus
row,SMILES,AC50
1,O=C(COC(=O)Cn1cnc2ccccc2c1=O)Nc1ccc2c(c1)OCO2,> 260 µM (inactive)
2,CCCSc1nsc(NC(=O)Nc2ccc(F)cc2F)n1,6.57 µM (active)
3,COc1ccc(/C=C/C(=O)NC(=S)Nc2ccccc2C(=O)NC2CCCCC2)cc1,13.9 µM (active)
4,O=C1CSC(c2cccnc2)N1CC1CC1 (stereo not given),> 260 µM (inactive)
5,COC(=O)c1ccc2[nH]c3cccc(/C(=C/c4ccccc4)c4ccccc4)c3c2c1,11.2 µM (active)
6,COc1ccccc1NCC(=O)N/N=C/c1c(O)ccc2ccccc12,4.94 µM (active)

# Target: T2, Streptokinase A (Streptococcus pyogenes serotype M1, UniProt P10520)
# T2 sequence (P10520 whole entry): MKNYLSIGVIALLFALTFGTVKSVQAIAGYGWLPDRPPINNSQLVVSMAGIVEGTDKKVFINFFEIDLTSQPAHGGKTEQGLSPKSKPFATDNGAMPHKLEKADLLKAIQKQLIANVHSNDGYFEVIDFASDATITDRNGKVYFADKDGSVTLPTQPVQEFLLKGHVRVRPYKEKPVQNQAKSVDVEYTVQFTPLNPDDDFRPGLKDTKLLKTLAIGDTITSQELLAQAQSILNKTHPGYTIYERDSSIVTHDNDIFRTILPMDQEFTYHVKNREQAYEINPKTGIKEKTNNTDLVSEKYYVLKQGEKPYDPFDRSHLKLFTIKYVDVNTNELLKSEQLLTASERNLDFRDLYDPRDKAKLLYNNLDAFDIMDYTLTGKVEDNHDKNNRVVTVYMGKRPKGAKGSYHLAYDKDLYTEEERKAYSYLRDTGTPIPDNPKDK
# Experiment: viability-normalized secreted streptokinase activity reduction – plasminogen activation absorbance, OD405, dose response (AID 1914);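 note: secreted streptokinase activity via plasminogen activation per viability signal from cell pellet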
# Type: functional, Streptococcus pyogenes M1 GAS
# Settings: not given
row,SMILES,EC50
1,CCCSc1nsc(NC(=O)Nc2ccc(F)cc2F)n1,54.8 µM (inconclusive)
2,COC(=O)c1ccc2[nH]c3cccc(/C(=C/c4ccccc4)c4ccccc4)c3c2c1,1.43 µM (active)

# Target: Cytochrome P450 2C9 (Homo sapiens, UniProt P11712)
# Sequence (P11712 whole entry): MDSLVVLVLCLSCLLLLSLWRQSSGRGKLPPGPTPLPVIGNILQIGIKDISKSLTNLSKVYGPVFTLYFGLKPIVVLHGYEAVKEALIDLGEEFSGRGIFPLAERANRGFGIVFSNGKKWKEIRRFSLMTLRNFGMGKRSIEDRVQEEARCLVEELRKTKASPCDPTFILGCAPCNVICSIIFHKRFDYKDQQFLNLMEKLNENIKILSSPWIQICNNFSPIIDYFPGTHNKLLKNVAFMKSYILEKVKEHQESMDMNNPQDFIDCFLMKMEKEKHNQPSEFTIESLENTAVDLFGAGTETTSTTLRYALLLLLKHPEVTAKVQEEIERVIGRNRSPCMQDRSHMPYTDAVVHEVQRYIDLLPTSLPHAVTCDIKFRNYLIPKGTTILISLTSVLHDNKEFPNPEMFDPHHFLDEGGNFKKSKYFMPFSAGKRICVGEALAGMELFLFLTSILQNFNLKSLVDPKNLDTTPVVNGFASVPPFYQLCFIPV
# Settings: not given
row,SMILES,AC50
1,O=C(CSc1nnc(CNc2ccccc2)o1)N1CCCc2ccccc21,15.8 µM (inconclusive)
2,O=C1CCC(c2ccccc2)(c2ccccc2)CC1,6.31 µM (inconclusive)
3,O=C(/C=C\c1ccc2c(c1)OCO2)c1ccc(F)cc1,1.58 µM (inconclusive)
4,CCCCNC(=O)CCC(=O)Nc1ccc2nc(N3CCOCC3)cc(C)c2c1,17.8 µM (inconclusive)
5,COC(=O)c1cccc(C(=O)Nc2ccc(C)cc2)n1,6.31 µM (inconclusive)
6,CC(=O)OCC(=O)[C@@]1(O)[C@H](C)C[C@@H]2[C@H]3CCC4=CC(=O)C=C[C@]4(C)[C@]3(F)[C@@H](O)C[C@@]21C,6.31 µM (inconclusive)
7,O=C(NC1CCCCC1)c1ccc(COCC(F)(F)F)o1,15.8 µM (inconclusive)

# Target: T3, Heat shock factor protein 1 (Mus musculus, UniProt P38532)
# T3 sequence (P38532 whole entry): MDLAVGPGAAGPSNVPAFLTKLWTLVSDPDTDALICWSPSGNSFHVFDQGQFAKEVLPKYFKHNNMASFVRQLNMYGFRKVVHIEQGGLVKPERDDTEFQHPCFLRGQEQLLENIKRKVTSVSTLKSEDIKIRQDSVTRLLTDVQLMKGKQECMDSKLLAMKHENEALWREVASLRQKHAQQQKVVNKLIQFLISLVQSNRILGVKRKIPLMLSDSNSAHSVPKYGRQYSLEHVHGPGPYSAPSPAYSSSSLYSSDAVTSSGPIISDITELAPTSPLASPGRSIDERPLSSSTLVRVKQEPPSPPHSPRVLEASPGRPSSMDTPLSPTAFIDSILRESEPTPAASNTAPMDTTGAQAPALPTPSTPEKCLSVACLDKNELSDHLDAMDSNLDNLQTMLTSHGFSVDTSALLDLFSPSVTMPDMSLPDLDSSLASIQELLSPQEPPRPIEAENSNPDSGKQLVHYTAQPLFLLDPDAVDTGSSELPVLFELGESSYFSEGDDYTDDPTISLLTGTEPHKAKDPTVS
# Experiment: decrease of HSF1-responsive luciferase luminescence – cell-based, NIH3T3, dose retest, confirmation (AID 2382);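 note: NIH3T3 fibroblasts with HSF1-driven luciferase reporter stressed by proteasome inhibitor MG132; luminescence from HSF1-driven luciferase expression after 8 hours of MG132 stress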
# Type: functional
# Settings: not given
row,SMILES,EC50
1,CCOC(=O)c1ccc(NC(=O)Oc2ccccc2)cc1,> 195 µM (not active)
2,CC(C)(NC(=O)c1cc(Cl)c2ccccc2c1O)C(=O)O,14.1 µM (active)
3,Cc1cc(C)nc(NC(=O)COc2cc(Cl)cc(Cl)c2)n1,71.9 µM (active)
4,CCOC(=O)N1CCN(C(S)=Nc2ccc(C)cc2C)CC1,> 195 µM (not active)
5,O=C(O)CSc1nc(-c2ccccc2)nc2c1oc1ccccc12,> 195 µM (not active)
6,CCOC(=O)C1=NOC2C3CC(C12)C1C(=O)N(CCc2ccc(OC)c(OC)c2)C(=O)C31 (stereo not given),> 195 µM (not active)
7,Cc1cc(S(=O)(=O)N2CCN=C2c2ccccc2)c(C)cc1Cl,> 195 µM (not active)
8,COC(=O)C1=CN(c2ccc(F)c(F)c2)C=C(C(=O)OC)C1c1ccc([N+](=O)[O-])cc1,> 195 µM (not active)
9,CCCOc1ccc(NC(N)=O)cc1OCCC,> 195 µM (not active)
10,Cc1cccc(N2C(=O)CS/C2=N\NC(=O)c2ccc(Br)cc2)c1C,> 195 µM (not active)
11,CC(=N/O)/C(C)=N\NC(=O)c1ccccn1,> 195 µM (not active)
12,O=C(O)COc1ccc(/C=N/NC(=O)c2ccccc2Br)cc1,> 195 µM (not active)

# Tested on: Streptococcus sp. 'group A'
# Experiment: Streptococcus pyogenes SK(-)GAS viability under kanamycin – luminescence, BacTiterGlo, confirmation, counter-screen for streptokinase expression inhibitor project, dose response (AID 1900)
# Type: functional, organism-based
# Settings: not given
row,SMILES,EC50
1,CCCSc1nsc(NC(=O)Nc2ccc(F)cc2F)n1,17.5 µM (active)
2,COC(=O)c1ccc2[nH]c3cccc(/C(=C/c4ccccc4)c4ccccc4)c3c2c1,0.602 µM (active)

# Target: T4, RNA-binding protein pos-1 (Caenorhabditis elegans, UniProt G5EF15)
# T4 sequence (G5EF15 whole entry): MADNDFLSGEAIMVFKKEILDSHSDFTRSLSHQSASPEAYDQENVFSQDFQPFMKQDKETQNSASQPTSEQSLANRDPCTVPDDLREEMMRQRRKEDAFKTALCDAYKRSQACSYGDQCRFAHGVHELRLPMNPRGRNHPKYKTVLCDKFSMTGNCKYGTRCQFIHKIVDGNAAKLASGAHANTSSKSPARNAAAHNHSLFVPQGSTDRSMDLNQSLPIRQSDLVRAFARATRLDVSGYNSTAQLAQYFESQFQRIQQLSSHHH
# Experiment: disruptors of C. elegans POS-1 RNA interaction – biochemical, fluorescence polarization, dose response (AID 1964);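 note: purified POS-1 fused to maltose binding protein made in E. coli; potency of compounds blocking POS-1 binding to fluorescent RNA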
# Settings: not given
row,SMILES,EC50
1,Cc1cc(/C=C2\SC(=O)N(C)C2=O)c(C)n1-c1cccc(C(=O)O)c1,> 300 µM (not active)
2,CN1C(=O)/C(=C/c2ccc3c(c2)OCO3)N=C1c1ccccc1,> 300 µM (not active)
3,Cc1ccc(NC(=O)CSc2nccc(=O)[nH]2)c(S(=O)(=O)N2CCOCC2)c1,> 300 µM (not active)
4,Cc1cc([N+](=O)[O-])nn1CC(=O)NNC(=S)Nc1ccc([N+](=O)[O-])cc1,28.3 µM (active)
5,O=C1C2CC=C(Cl)CC2C(=O)N1CCc1ccccc1 (stereo not given),29.4 µM (active)
6,O=C(CC1Nc2ccccc2NC1=O)c1ccccc1 (stereo not given),30.6 µM (active)
7,COc1cc(/N=C/c2c(O)oc3ccccc3c2=O)c(OC)cc1Cl,> 300 µM (inconclusive)
8,COc1ccccc1NCC(=O)N/N=C/c1c(O)ccc2ccccc12,> 300 µM (not active)

# Target: T5, Corticotropin-releasing factor receptor 2/Corticotropin-releasing factor-binding protein (Homo sapiens, UniProt P24387+Q13324)
# T5 sequence (Q13324 whole entry): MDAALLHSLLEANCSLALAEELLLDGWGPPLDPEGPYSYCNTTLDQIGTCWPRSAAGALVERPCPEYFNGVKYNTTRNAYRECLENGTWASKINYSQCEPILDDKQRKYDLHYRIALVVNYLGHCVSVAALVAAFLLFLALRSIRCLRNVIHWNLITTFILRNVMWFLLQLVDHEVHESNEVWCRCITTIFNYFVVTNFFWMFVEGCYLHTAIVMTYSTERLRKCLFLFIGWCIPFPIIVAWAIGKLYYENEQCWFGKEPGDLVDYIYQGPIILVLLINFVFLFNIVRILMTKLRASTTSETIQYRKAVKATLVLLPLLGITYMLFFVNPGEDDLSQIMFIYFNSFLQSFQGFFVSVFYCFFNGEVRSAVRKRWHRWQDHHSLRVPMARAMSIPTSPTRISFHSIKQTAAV
# T5 sequence (P24387 whole entry): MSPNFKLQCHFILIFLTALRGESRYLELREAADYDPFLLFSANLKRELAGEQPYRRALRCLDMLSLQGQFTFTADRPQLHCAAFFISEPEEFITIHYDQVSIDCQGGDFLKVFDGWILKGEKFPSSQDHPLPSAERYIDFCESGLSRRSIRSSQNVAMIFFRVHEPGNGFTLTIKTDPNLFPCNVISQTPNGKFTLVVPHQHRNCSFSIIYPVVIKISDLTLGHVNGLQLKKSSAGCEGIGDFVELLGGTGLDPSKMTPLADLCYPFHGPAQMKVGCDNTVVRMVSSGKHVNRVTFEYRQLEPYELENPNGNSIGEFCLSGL
# Experiment: activators of CRF receptor 2 with binding protein – uHTS hits, confirmation (AID 602473)
# Type: functional
# Settings: read-out: EC50_Mean
row,SMILES,EC50
1,CC(=O)Nc1ccccc1Sc1ccc2c3c(cccc13)C(=O)N(c1ccc(C)cc1)C2=O,> 53 µM (inactive)
2,CC1(c2ccc(Cl)cc2)NC(=O)N(CC(=O)N2CCc3ccccc32)C1=O (stereo not given),14.1 µM (active)
3,COc1cc(/N=C/c2c(O)oc3ccccc3c2=O)c(OC)cc1Cl,> 53 µM (inactive)

# Reference: ChEMBL document CHEMBL1201862, “PubChem BioAssay data set” (2004)
